According to US20150253328A1, “NANOMATERIAL-INDUCED CYTOTOXICITY DETECTION COMPOSITION AND KIT, AND NANOMATERIAL-INDUCED CYTOTOXICITY DETECTION METHOD” (KOREA UNIVERSITY RESEARCH AND BUSINESS FOUNDATION, priority 2011, published 2015):

How the values were obtained:
Type in all cases: cell-based, human
Egr-1 and p-ERK proteins [1] = experiment: ROS inhibitor assay (Western blot), HEKn; conditions: 10 uM/ml NAC 2 hours before ZnO, 1 hour after ZnO, FIG. 13C
Method: (§1) A Western blot assay was performed in the same manner as described in Example 2, except for the following differences. At 2 hours before treatment with ZnO, cultured cells were treated with 10 uM/ml of the antioxidant N-acetyl cystein (NAC), and after 2 hours, the cells were treated with 2 ml of fresh DMEM medium free of FBS and P/S. After 1 hour from the treatment with ZnO, the medium was removed, and the cells were treated with 1×PBS, scraped with a scrapper, and then transferred to a 1.5 ml tube. […] Thus, it can be seen that the expressions of the marker proteins Egr-1 and p-ERK are increased by ROS (B: HaCaT, C: HEKn). Herein, the data points indicate the β-actin-normalized mean and ERK-normalized mean of three independent experiments compared using two-way Anova (***P<0.001).

Egr-1 and p-ERK proteins [2] = experiment: ROS inhibitor assay (Western blot), HaCaT; conditions: 10 uM/ml NAC 2 hours before ZnO, 1 hour after ZnO, FIG. 13B
Method: as §1

Egr-1 protein = experiment: MAPK inhibitor assay (Western blot, ZnO plus MAPK inhibitor); conditions: cells pre-treated with inhibitor 30 minutes before ZnO; 2 hours after ZnO
Method: (§2) A Western blot assay was performed in the same manner as described in Example 2, except for the following differences. At 30 minutes before treatment with ZnO, cells were treated with an MAPK (mitogen-activated proteinkinase) inhibitor (U0126: ERK inhibitor, SB600125: p38 inhibitor, SP239063: JNK inhibitor-sigma product), and after 30 minutes, the cells were treated with 2 ml of fresh DMEM medium free of FBS and P/S. After 2 hours from treatment with ZnO, the medium was removed, and the cells were treated with 1×PBS, scraped with a scrapper, and then transferred to a 1.5 ml tube.
as §2, with “from the” for “from”

Row | Structure (SMILES) | expression bands of Egr-1 protein (Egr-1 and p-ERK proteins [1]) | expression bands of p-ERK protein (Egr-1 and p-ERK proteins [1]) | expression bands of Egr-1 protein (Egr-1 and p-ERK proteins [2]) | expression bands of p-ERK protein (Egr-1 and p-ERK proteins [2]) | expression of the Egr-1 protein (Egr-1 protein)
1 | CC(=O)N[C@@H](CS)C(=O)O [NAC, N-acetyl cystein] | significantly decreased | significantly decreased | significantly decreased | significantly decreased | –
2 | N#CC(=C(/N)Sc1ccccc1N)/C(C#N)=C(\N)Sc1ccccc1N [U0126] | – | – | – | – | significantly decreased
